Where “and” joins values, the source holds several entries; their conditions need not be identical. Equal entries are not always repeated. ± gives the expanded uncertainty stated by the source.
Experiments:
[1] = Liquid, Ebulliometric method (Recirculating still)
[2] = refractive index (Na D-line) (dimensionless); conditions: 293.15 K; 101.33 kPa; Liquid; Standard Abbe refractometry

Row | Structure (SMILES) | vapor or sublimation pressure ([1]; 303.15 K) | vapor or sublimation pressure ([1]; 323.15 K) | vapor or sublimation pressure ([1]; 343.15 K) | refractive index [2] | vapor or sublimation pressure ([1]; 313.15 K) | vapor or sublimation pressure ([1]; 329.15 K)
1 | CC(C)CO [2-methyl-1-propanol] | 2.01 ± 0.22 kPa | 7.11 ± 0.23 kPa | 20.47 ± 0.24 kPa | 1.3958 ± 0.002 | – | –
2 | O [water] | 4.27 ± 0.22 kPa | 12.38 ± 0.23 kPa | – | 1.3333 ± 0.002 | 7.44 ± 0.23 kPa and 7.34 ± 0.23 kPa | –

More lines, now with the values ahead:

Row | vapor or sublimation pressure ([1]; 303.15 K) | vapor or sublimation pressure ([1]; 323.15 K) | vapor or sublimation pressure ([1]; 343.15 K) | refractive index [2] | vapor or sublimation pressure ([1]; 313.15 K) | vapor or sublimation pressure ([1]; 329.15 K) | Structure (SMILES)
3 | 3.9 ± 0.22 kPa | 12.19 ± 0.23 kPa | – | 1.3853 ± 0.002 | 7.02 ± 0.23 kPa and 6.93 ± 0.23 kPa | – | CCCO [propan-1-ol]
4 | 3.27 ± 0.23 kPa | – | 29.58 ± 0.26 kPa | 1.3976 ± 0.002 | – | 14.83 ± 0.23 kPa and 14.37 ± 0.23 kPa | CCC(C)O (stereo unspecified) [butan-2-ol]
5 | 25.09 ± 0.28 kPa | 54.3 ± 0.29 kPa | 105.38 ± 0.71 kPa | 1.3725 ± 0.002 | – | 66.87 ± 0.39 kPa and 67.73 ± 0.39 kPa | CCCCCC [hexane]

Source: the NIST ThermoML archive (doi:10.1021/acs.jced.9b00102)
